Patent publication US5219879A, “Heterocyclic steroid compounds” (Du Pont Merck Pharmaceutical Company, priority 1991, dated 1993)
pIC50: −log10 of the molar value.

Key:
[1] = Lowering Blood Cholesterol Levels in Hamsters; format: in vivo, Male Golden Syrian hamsters; conditions: 0.2% (w/w) in feed, 7 days; means ± SEM; N = 10; pair-fed control 133.0 ± 4.0 (N = 20)
Procedure: Male Golden Syrian hamsters (50-60 grams) were obtained from Charles River, Inc. (Wilmington, Mass.).
Animals were housed in individual suspension cages and were maintained on a light cycle consisting of 12 hours of light followed by 12 hours of dark. Animals were allowed free access to water and feed (Agway ground chow, RMH 3200, Agway, Syracuse, N.Y.) containing 1% (w/w) corn oil) for a minimum of 4 weeks.
Following this stabilization period a sample of blood was collected by orbital sinus bleeding under light ether anesthesia into heparinized capillary tubes. Plasma was separated by centrifugation (600×g for 10 minutes) and plasma cholesterols were determined by an autoanalyzer (Centrifichem 600, Baker Instruments, Allentown, Pa.). Based upon measured plasma cholesterol values, the animals were randomized into two groups such that the mean plasma cholesterol values were identical for both groups.
Animals in the two groups were then placed on one of two diets: (1) Diet A, consisting of ground chow plus 1% (w/w) corn oil, as described above; or (2) Diet B, consisting of Diet A plus 0.2% (w/w) of a test compound. Animals on Diet B, the treated animals, were allowed free access to feed and water, while animals on Diet A were pair-matched with Diet B animals and served as pair-fed controls. […] Total plasma cholesterol levels were determined as described above. […]

[2] = tested on: 3-Hydroxy-3-Methylglutaryl Coenzyme A Reductase (HMGR); experiment: 3-Hydroxy-3-Methylglutaryl Coenzyme A Reductase (HMGR) Suppression Assay; format: cell-based, Chinese Hamster (CHO cells); conditions: CHO cells, 6 hr. at 37°; read-out: IC50 (amount of compound required to suppress HMGR activity by 50% relative to controls)
Procedure: The ability of the compounds of Formula I to suppress the activity of HMGR, the rate limiting enzyme of cholesterol biosynthesis, was tested as follows.
Chinese Hamster Ovary (CHO) cells were divided twice weekly and were maintained in McCoy's 5A medium supplemented with 1% carbosil delipidated Fetal Bovine System (FBS) (obtained from Gibco Laboratories, Chagrin Falls, Ohio). Cells were harvested during the logarithmic phase of growth and cell cultures were prepared by adding […] cells to each well in a 24 well cluster dish (obtained from Costar, Data Packaging Corp., Cambridge, Mass.) employing 1 ml of the above medium per each well. […] Control cells were treated in an identical fashion to those which received test compound, except they were incubated with the BSA and ethanol suspension only.
Specifically, the medium in each well was aspirated and the cells rinsed with a 50 mM solution of phosphate buffered saline (PBS). One ml of 30 mg/ml of digitonin in CSK buffer (prepared using 10 mM Pipes [piperazine-N,N'-bis (2-ethansulfonic) acid], 100 mM KCl, 2.5 mM MgCl2, 300 mM sucrose, 1 mM EGTA, pH 6.8) was added to each well and incubated for 10 min. at 22° to permeabilize the cells. The buffer was carefully aspirated and the wells were rinsed twice each time with 1 ml of PBS. HMGR activity was measured directly by adding 75 ml of PIB buffer (50 mM potassium phosphate, 1 mM Na2 EDTA, 10 mM dithiothreitol, pH 7.4) to each well and incubating the cells for 30 minutes at 37° as described above. […] The assay mixture was incubated for 30 min. at 37° and terminated by the addition of 70 ml of [^3 H]-mevalonicacid (35,000 DPM/assay), 0.15 mg/ml in 3N HCl.
The reaction was left to lactonize for an additional 30 min. at 37° or overnight at room temperature.
Reaction products were separated by thin layer chromatography on silica gel G (obtained from Analtech, Newark, Del.) developed in an unsaturated environment with acetone:benzene (3:2, v:v). The band corresponding to mevalonolactone was identified by exposure to iodine vapor and was scraped into counting vials. The extent of conversion of starting substrate, HMG-CoA, to mevalonic acid was determined by liquid scintillation counting in Biofluor (obtained from New England Nuclear, Boston, Mass.). Corrections for recovery and blank values were made for each sample. Protein determinations were made by Bio-Rad (Bio-Rad, Richmond, Calif.) dye binding assay according to the manufacturer's instruction using bovine serum albumin as standard. Cellular protein was solubilized from culture dishes by the addition of 20 μl of 16N KOH and assayed directly for protein amount. Suppression values are expressed as the amount of compound required to suppress HMGR activity by 50% relative to that of the controls.

peanut seedlings = experiment: Example B: plant disease control on peanut seedlings; format: in vivo; conditions: 200 ppm, 100 = 100% disease control
Procedure: The test compounds were dissolved in acetone in an amount equal to 6% of the final volume and then suspended at a concentration of 200 ppm in purified water containing 250 ppm of the surfactant TREM […] (polyhydric alcohol esters). This suspension was sprayed to the point of run-off on peanut seedlings. The following day plants were incubated in a saturated humidity chamber at 22° C. for 24 hours, then in a high humidity chamber at 27° C. for 7 days, and then in a growth chamber at 29° C. for 7 days, when disease ratings were made.
In this table, a rating of 100 indicated 100% disease control, and a rating of 0 indicates no disease control relative to untreated plants that were inoculated and incubated as described in each Example. A dashed entry indicates the specified test was not performed.

Botrytis cinerea [3] = experiment: Example J: grape grey mold on grape seedlings; format: in vivo; conditions: 200 ppm, 100 = 100% disease control
Procedure: (§1) The test compounds were dissolved in acetone in an amount equal to 6% of the final volume and then suspended at a concentration of 200 ppm in purified water containing 250 ppm of the surfactant TREM 014 (polyhydric alcohol esters). This suspension was sprayed to the point of run-off on grape seedlings. The following day plants were inoculated with a spore suspension of Botrytis cinerea, the causal agent of grape grey mold, and incubated in a saturated humidity chamber at 20° C. for 96 hours when disease ratings were made. […] A dashed entry indicates the specified test was not performed.

[4] = tested on: Ersiphe graminis f. sp. tritici; experiment: Example D: wheat powdery mildew on wheat seedlings; format: in vivo; conditions: 200 ppm, 100 = 100% disease control
Procedure: The test compounds were dissolved in acetone in an amount equal to 6% of the final volume and then suspended at a concentration of 200 ppm in purified water containing 250 ppm of the surfactant TREM 014 (polyhydric alcohol esters). This suspension was sprayed to the point of run-off on wheat seedlings. […] A dashed entry indicates the specified test was not performed.

Pyricularia oryzae = format: in vivo; conditions: rice seedlings, 200 ppm; 100 = 100% disease control
Venturia inaequalis = experiment: Example A: apple scab on apple seedlings; format: in vivo; conditions: 200 ppm, sprayed the day before inoculation, 100 = 100% disease control
Procedure: as §1, with “apple” for “grape”, “Venturia inaequalis,” for “Botrytis cinerea,”, “casual” for “causal”, “apple scab,” for “grape grey mold,”, “24” for “96”, “hours and then in a growth chamber at 22° C. for 11 days,” for “hours”

Puccinia recondita = experiment: Example G: wheat leaf rust on wheat seedlings; format: in vivo; conditions: 220 ppm, 100 = 100% disease control
Procedure: as §1, with “220” for “200”, “wheat” for “grape”, “Puccinia recondita,” for “Botrytis cinerea,”, “wheat leaf rust,” for “grape grey mold,”, “48” for “96”, “hours and then in a growth chamber at 20° C. for 8 days,” for “hours”

Botrytis cinerea [5] = experiment: Example K: cucumber grey mold on cucumber seedlings; format: in vivo; conditions: 200 ppm, 100 = 100% disease control
Procedure: The test compounds were dissolved in acetone in an amount equal to 6% of the final volume and then suspended at a concentration of 200 ppm in purified water containing 250 ppm of the surfactant TREM 014 (polyhydric alcohol esters). This suspension was sprayed to the point of run-off on cucumber seedlings. The following day plants were inoculated with a spore suspension of Botrytis cinerea, the causal agent of cucumber grey mold, and incubated in a saturated humidity chamber at 20° C. for 4 days when disease ratings were made. […] A dashed entry indicates the specified test was not performed.

Rhizoctonia solani = experiment: Example F: rice sheath blight on rice seedlings; format: in vivo; conditions: 220 ppm, 0 = no disease control, 100 = 100% disease control
Procedure: The test compounds were dissolved in acetone in an amount equal to 6% of the final volume and then suspended at a concentration of 220 ppm in purified water containing 250 ppm of the surfactant TREM 014 (polyhydric alcohol esters). This suspension was sprayed to the point of run-off on rice seedlings. The following day plants were inoculated with a mycelial suspension of Rhizoctonia solani, the causal agent of rice sheath blight, and incubated in a saturated humidity chamber at 27° C. for 48 hours and then in a growth chamber at 29° C. for 4 days, when disease ratings were made. […] A dashed entry indicates the specified test was not performed.

Botyrtis cinerea = experiment: Example C: bean grey mold on broad bean seedlings; format: in vivo; conditions: 200 ppm, 100 = 100% disease control
Procedure: The test compounds were dissolved in acetone in an amount equal to 6% of the final volume and then suspended at a concentration of 200 ppm in purified water containing 250 ppm of the surfactant TREM […] (polyhydric alcohol esters). This suspension was sprayed to the point of run-off on broad bean seedlings. The following day plants were inoculated with a spore suspension of Botyrtis cinerea, the causal agent of bean grey mold, and incubated in a saturated humidity chamber at 20° C. for 24 hours when disease ratings were made. […] A dashed entry indicates the specified test was not performed.

Phytophthora infestans = format: in vivo; conditions: tomato seedlings, 200 ppm; 100 = 100% disease control
Plasmopara victicola = experiment: Example I: grape downy mildew on grape seedlings; format: in vivo; conditions: 200 ppm, 100 = 100% disease control
Procedure: as §1, with “Plasmopara victicola,” for “Botrytis cinerea,”, “downy mildew,” for “grey mold,”, “24” for “96”, “hours and then in a growth chamber at 20° C. for 7 days, and then held in a saturated humidity chamber at 20° C. for 24 hours,” for “hours”

Structure (SMILES)	Plasma Cholesterol, Treated [1]	pIC50 [2]	disease control rating, Example B (peanut seedlings)	disease control rating, Example J (Botrytis cinerea [3])	disease control rating, Example D [4]	disease control rating, Example E (Pyricularia oryzae)	disease control rating, Example A (Venturia inaequalis)	disease control rating, Example G (Puccinia recondita)	disease control rating, Example K (Botrytis cinerea [5])	disease control rating, Example F (Rhizoctonia solani)	disease control rating, Example C (Botyrtis cinerea)	disease control rating, Example H (Phytophthora infestans)	disease control rating, Example I (Plasmopara victicola)
CC(C)CCC[C@@H](C)[C@H]1CO[C@@]2(C)C3=C(CC[C@]12C)[C@@]1(C)CC[C@H](O)C(C)(C)[C@@H]1CC3 [Example 1, 15-Oxa-dihydrolanosterol]	120. ± 2.0 mg/dl	6.74	–	–	–	–	–	–	–	–	–	–	–
CC(C)CCC[C@@H](C)[C@H]1CN=C2C3=C(CC[C@@]21C)[C@@]1(C)CC[C@H](O)C(C)(C)[C@@H]1CC3 [Example 1817]	–	6.30	25%	97%	92%	1%	90%	62%	99%	0%	97%	–	–
CC(C)CCC[C@@H](C)[C@H]1CN=C2C3=C(CC[C@@]21C)[C@@]1(C)CC[C@H](O)C[C@@H]1CC3 [Example 1818]	–	6.80	95%	78%	98%	6%	99%	100%	100%	0%	95%	94%	100%
